Data on eight molecules can be found in publication PMC7582656, “The Hirudo Medicinalis Microbiome Is a Source of New Antimicrobial Peptides” (International Journal of Molecular Sciences, 2020).

In brackets after ≈: the same amount, converted by molar mass. Entries after “also recorded” stand apart in the source; their conditions may differ. Where two headings read alike, the source gives them in different places. Where no end group is shown, it is not given here.

The subject of data set [1] is E. coli K12 substr MG1655. It counts as cell-based, Escherichia coli. The following applies: two-fold serial dilution, 96-well plates, Mueller Hinton broth, triplicate. As to the method:
(§1) The minimum inhibitory concentration (MIC) of peptides was determined by the standard microtiter dilution method, as performed previously. Briefly, the MIC was determined by growing the microorganisms in 96-well microtitration plates in the presence of a two-fold serial dilution of the peptides. […] Mueller Hinton broth (MHB, BD Difco, Thermo Fisher Scientific Inc., Waltham, MA, USA) was used for all cultures, including Bacillus subtilis 168HT, Staphylococcus aureus ST 88, Staphylococcus haemolyticus 527 (clinical isolate), and Escherichia coli K12 substr. MG1655 strains. Each experiment was performed in triplicate with positive (melittin (Merck Company Inc., Kenilworth, NJ, USA)) and negative (without peptide) inhibition controls.

The next data set concerns B. subtilis 168HT. It counts as cell-based, Bacillus subtilis. As to the method:
as §1

The subject of a further data set is S. haemolyticus 527. The class given is cell-based, Staphylococcus haemolyticus. On the procedure: as §1
A further data set relates to E. coli ATCC25922. To be noted: ref Porto et al. [32]; cited from earlier work. The source says:
According to numerous studies, the actions of AMPs on bacteria are diverse and appear to be dependent on the target and the peptide concentration. The speed of the antimicrobial effect of different AMPs can vary greatly.

The subject of data set [2] is McCoy cells. As to the kind of experiment: LIVE/DEAD viability/cytotoxicity assay, fluorescent images. The class given is cell-based, mouse. To be noted: 24 h. On the procedure: (§2) The cytotoxicity of peptides towards the mouse fibroblast cell line McCoy was determined via the LIVE/DEAD™ Viability/Cytotoxicity Kit (Thermo Fisher Scientific Inc., Waltham, MA, USA) according to the manufacturer′s recommendations, as performed previously. […] Melittin was used as a negative control, and McCoy cells treated without peptides were used as a positive control. After peptide exposure, cells were washed and then stained with PBS containing calcein AM and ethidium homodimer–1 at concentrations of 0.3 and 1.25 μM, respectively, for 30 min at 37 °C. After staining, the cells were washed twice with PBS. The images were captured using an epifluorescence microscope with the respective filter cubes from 10 occasionally selected fields of view captured for each well with a 20× objective. Images were captured for FITC and TRITC channels. The numbers of cells in both channels were quantified with the ImageJ software (version 1.48; RSB).

The next data set deals with S. aureus ST 88. The class given is cell-based, Staphylococcus aureus. On the procedure:
as §1

Data set [3] deals with McCoy cells. The data set can be described thus: Cytotoxicity by live/dead assay and lactate dehydrogenase assay together. It counts as cell-based, mouse. The following applies: 24 and 48 h, peptide at 4x MIC, live/dead fluorescence imaging and LDH assay. On the procedure:
We applied two techniques: Fluorescence imaging of dead and living cells (live/dead viability/cytotoxicity assay, Table 3, Figure S2) and a colorimetric assay (lactate dehydrogenase assay, Figure S3).
as §2
The cytotoxicity of peptides was also measured by a lactate dehydrogenase (LDH) assay kit (Merck Company Inc., Kenilworth, NJ, USA) according to the manufacturer′s recommendations. Briefly, 100 μL of McCoy cells per well were seeded on 96-well culture plates at a density of 2 × 10^5 cells/mL and incubated for 24 h at 37 °C with peptides at a final concentration equal to 4× MIC. Melittin was used as a negative control, and McCoy cells treated without peptides were used as a positive control. The growth medium without peptides was used as blank absorbance readings. After the peptide treatment, the plate with cells was centrifuged for 10 min at 900 g, and 50 μL of medium from each well was transferred to another plate. Fifty microlitres of the prepared LDH kit solution were added to each well. All manipulations were performed in the dark. The absorbance of the wells was measured after 15 min incubation in the dark at wavelengths of 495 and 690 nm using a Multiscan Ascent microtiter plate reader (Thermo Fisher Scientific Inc., Waltham, MA, USA). The specific absorbance of each sample was calculated according to the equation:Absorbance = A495 nm (Test) − A495 nm (Blank) − A690 nm (Test)
The percentage of cell viability was recalculated according to the control values.

Consider `CC[C@H](C)[C@H](NC(=O)CN)C(=O)NCC(=O)N[C@@H](C)C(=O)N[C@H](C(=O)N[C@@H](CC(C)C)C(=O)N[C@@H](CCCCN)C(=O)N[C@H](C(=O)N[C@@H](CC(C)C)C(=O)N[C@H](C(=O)N[C@H](C(=O)NCC(=O)N[C@@H](CC(C)C)C(=O)N1CCC[C@H]1C(=O)N[C@@H](C)C(=O)N[C@@H](CC(C)C)C(=O)N[C@H](C(=O)N[C@@H](CO)C(=O)N[C@@H](Cc1c[nH]c2ccccc12)C(=O)N[C@H](C(=O)N[C@@H](CCCCN)C(=O)N[C@@H](CCCNC(=N)N)C(=O)N[C@@H](CCCCN)C(=O)N[C@@H](CCCNC(=N)N)C(=O)N[C@@H](CCC(N)=O)C(=O)N[C@@H](CCC(N)=O)C(N)=O)[C@@H](C)CC)[C@@H](C)CC)[C@@H](C)O)[C@@H](C)O)C(C)C)C(C)C` [Melittin, melittin, reference compound], for which the MIC in data set [1] stood at 5.7 µM (≈ 16.2 µg/mL); in the data set on B. subtilis 168HT (B. subtilis 168HT, two-fold serial dilution, 96-well plates, Mueller Hinton broth, triplicate), 1.5 µM (≈ 4.27 µg/mL); against S. haemolyticus 527 (S. haemolyticus 527 (clinical isolate), two-fold serial dilution, 96-well plates, Mueller Hinton broth, triplicate), 5.7 µM (≈ 16.2 µg/mL); against S. aureus ST 88 (S. aureus ST 88 (MRSA), two-fold serial dilution, 96-well plates, Mueller Hinton broth, triplicate), 1.5 µM (≈ 4.27 µg/mL). In the data set on E. coli ATCC25922, the “Time to kill E. coli ATCC25922” value is reported as 10 s. Moreover, the “Cell Viability, %” value with McCoy cells [2] (McCoy cells, 37 °C, peptide at 4× MIC, calcein AM / ethidium homodimer-1 staining, fluorescent images, mean ± SD (n = 3)) is 0.3 ± 0.1 %.

For FLIGKAIKRKFCLRSVWNA-NH2 [pept_1545], the figures for the MIC in the data set on B. subtilis 168HT (168HT) and against S. aureus ST 88 (ST 88) were 7.2 µM and more than 100 µM, respectively. The “Cytotoxicity (in words)” value in the data set on McCoy cells [3] is on record as “did not exert any inhibition of cell growth even after 48 h; also recorded: did not cause cell death”. Moreover, the “Cell Viability, %” value with McCoy cells [2] (4 MIC) stood at 98.7 ± 1.3%.

Turning to FVKILAKLVNYAKN [pept_970], the MIC in the data set with B. subtilis 168HT (168HT) is 19.8 µM; against S. haemolyticus 527 (527) it was more than 100 µM; in the data set with S. aureus ST 88 (ST 88), more than 100 µM. Moreover, the “Cytotoxicity (in words)” value with McCoy cells [3] is recorded as “strong cytotoxicity comparable to melittin”. Further, the “Cell Viability, %” value in the data set on McCoy cells [2] (4 MIC) turned out to be 2.7 ± 2.1 %.

Regarding IGRHFKRRNSIWGICWF [pept_1303], the MIC is 14.8 µM against B. subtilis 168HT (168HT) and more than 100 µM in the data set with S. aureus ST 88 (ST 88). In the data set with McCoy cells [3], the “Cytotoxicity (in words)” value is “reduced the cell viability to a lesser but still severe degree”. In addition, the “Cell Viability, %” value in the data set on McCoy cells [2] (4 MIC) turned out to be 25.1 ± 8.3 %.

In the case of IVKRFFRISYKLQSLKIIKGKRTFT [pept_84], the results for the MIC against B. subtilis 168HT (168HT), with S. haemolyticus 527 (527) and against S. aureus ST 88 (ST 88) were 5.3 µM, 5.3 µM and more than 100 µM, respectively. For the same molecule, the “Cytotoxicity (in words)” value with McCoy cells [3] is given as “reduced the cell viability to a lesser but still severe degree”. Moreover, in the data set with McCoy cells [2] (4 MIC), the “Cell Viability, %” value came to 11.2 ± 7.4 %.

For the molecule KKGKSFKQLHIIVHLVKSWLRTILTHI [pept_352], the MIC against B. subtilis 168HT (168HT) was determined as 10 µM; against S. haemolyticus 527 (527), 10 µM; against S. aureus ST 88 (ST 88), 19.9 µM. For the same molecule, in the data set with McCoy cells [3], the “Cytotoxicity (in words)” value is on record as “strong cytotoxicity comparable to melittin”. Further, the “Cell Viability, %” value in the data set with McCoy cells [2] (4 MIC) is on record as 0.2 ± 0.1 %.

Consider VLIRGLIHMLRGG [pept_148], for which the MIC in the data set with B. subtilis 168HT (168HT) was 22.4 µM; in the data set with S. haemolyticus 527 (527) it was more than 100 µM; in the data set on S. aureus ST 88 (ST 88), more than 100 µM. Besides, the “Cytotoxicity (in words)” value in the data set on McCoy cells [3] is “did not exert any inhibition of cell growth even after 48 h; also recorded: did not cause cell death”. The “Cell Viability, %” value in the data set on McCoy cells [2] (4 MIC) is 98.3 ± 0.9%.

For guavanin 2, in the data set with E. coli ATCC25922, the “Time of lytic effect” value is listed as 10 min.

As usually defined, the MIC is the smallest concentration in the dilution series that meets the test's criterion for growth inhibition. The low end stands for greater potency, the high end for weaker potency.
